Assay results published in ChEMBL document CHEMBL1152069, “Synthesis and biological properties of carboranylaziridines bearing cascade polyols” (Bioorg Med Chem Lett, 1996).

How the values were obtained:
[1] = Water solubility at 37 degree C.; type: ADME; settings: buffer
[2] = Compound was tested for growth Inhibition against human TIG-1-20 fibroblast cells; type: functional, cell-based
[3] = test system: B16; experiment: Compound was tested for cytotoxic activity against […] melanoma cells; type: functional, cell-based, Mus musculus
[4] = test system: B16; experiment: Compound was tested for growth Inhibition against B16 melanoma cells; type: functional, cell-based, Mus musculus

With `CC1CN1CC(O)CC1CC1COC(COC(CO)CO)COC(CO)CO` (centres undefined) the S [1] was > 0.01 M,mol dme-3, the IC50 [2] was 0.000068 M,mol dme-3 and the IC50 [3] was 0.00005 M,mol dme-3.

For `CC1CN1CC(O)CC1CC1` (centres undefined), the S [1] was < 0.001 M,mol dme-3, the IC50 [4] was 5.4e-6 M,mol dme-3 and the IC50 [2] was 0.000018 M,mol dme-3.

With `CC1CN1CC(O)CC1CC1COC(CO)CO` (centres undefined) the S [1] was 0.0081 M,mol dme-3, the IC50 [2] was 0.000041 M,mol dme-3 and the IC50 [3] was 0.000029 M,mol dme-3.
